The values below come from US10053428B2, “5-aminotetrahydroquinoline-2-carboxylic acids and their use” (BAYER PHARMA AKTIENGESELLSCHAFT, priority 2012, dated 2018).

The test deals with recombinant guanylate cyclase reporter cell line. Description: sGC-activating activity in the CHO reporter cell in vitro. The format is cell-based. Particulars: read-out: MEC (minimum effective concentration). The protocol:
B-2. Action at a Recombinant Guanylate Cyclase Reporter Cell Line
The cellular action of the compounds according to the invention is determined at a recombinant guanylate cyclase reporter cell line, as described in F. Wunder et al., Anal. Biochem. 32, 104-112 (2005).
As for `CC(C)(C)c1ccc(COc2ccccc2CCN(CCc2ccc(C(=O)O)cc2)C2CCCc3nc(C(=O)O)ccc32)cc1` (racemic) [Example 12, rac-5-{(2-{2-[(4-tert-Butylbenzyl)oxy]phenyl}ethyl)[2-(4-carboxyphenyl)ethyl]amino}-5,6,7,8-tetrahydroquinoline-2-carboxylic acid], the minimal effective concentration amounted to 0.3 nM. `CC(C)(C)c1ccc(COc2ccccc2CCN(CCCCC(=O)O)C2CCCc3nc(C(=O)O)ccc32)cc1` (single isomer, unassigned) [Example 3]: the minimal effective concentration was 100 nM. The same measure for `O=C(O)CCCCN(CCc1ccccc1OCc1ccc(-c2ccc(C(F)(F)F)cc2)cc1Cl)C1CCCc2nc(C(=O)O)ccc21` (single isomer, unassigned) [Example 7]: 0.3 nM; for `O=C(O)CCCCN(CCc1ccccc1OCc1ccc(-c2ccc(C(F)(F)F)cc2)cc1Cl)C1CCCc2nc(C(=O)O)ccc21` (single isomer, unassigned) [Example 8]: 3 nM. The same measure for `O=C(O)CCCCN(CCc1ccccc1OCCCCCc1ccccc1)C1CCCc2nc(C(=O)O)ccc21` (single isomer, unassigned) [Example 9]: 10 nM; for `O=C(O)CCCCN(CCc1ccccc1OCCCCCc1ccccc1)C1CCCc2nc(C(=O)O)ccc21` (single isomer, unassigned) [Example 10]: 300 nM. `O=C(O)CCCCN(CCc1ccccc1OCc1ccc(-c2ccc(C(F)(F)F)cc2)cc1)C1CCCc2nc(C(=O)O)ccc21` (single isomer, unassigned) [Example 17]: the minimal effective concentration is on record as 1000 nM. With `Cc1ccc2oc(-c3ccc(COc4ccccc4CCN(CCc4ccc(C(=O)O)cc4)C4CCCc5nc(C(=O)O)ccc54)cc3)nc2c1` (single isomer, unassigned) [Example 21], the minimal effective concentration stood at 100 nM. Turning to `Cc1ccc2oc(-c3ccc(COc4ccccc4CCN(CCc4ccc(C(=O)O)cc4)C4CCCc5nc(C(=O)O)ccc54)cc3)nc2c1` (single isomer, unassigned) [Example 22], the minimal effective concentration was found to be 1 nM. Turning to `O=C(O)c1ccc(CCN(CCc2ccccc2OCc2ccc(-c3nc4cc(C(F)(F)F)ccc4o3)cc2)C2CCCc3nc(C(=O)O)ccc32)cc1` (single isomer, unassigned) [Example 24], the minimal effective concentration turned out to be 1 nM. With `O=C(O)CCCCN(CCc1ccccc1OCc1ccc(-c2nc3cc(C(F)(F)F)ccc3o2)cc1)C1CCCc2nc(C(=O)O)ccc21` (single isomer, unassigned) [Example 25], the minimal effective concentration came out at 0.3 nM. As for `O=C(O)c1ccc(CCN(CCc2ccccc2OCc2ccc(-c3nc4ccccc4o3)cc2)C2CCCc3nc(C(=O)O)ccc32)cc1` (single isomer, unassigned) [Example 26], the figure is 1 nM; as for `O=C(O)c1ccc(CCN(CCc2ccccc2OCc2ccc(-c3nc4cc(OC(F)(F)F)ccc4o3)cc2)C2CCCc3nc(C(=O)O)ccc32)cc1` (single isomer, unassigned) [Example 29], 3 nM.

For the compound `N#Cc1ccc2oc(-c3ccc(COc4ccccc4CCN(CCc4ccc(C(=O)O)cc4)C4CCCc5nc(C(=O)O)ccc54)cc3)nc2c1` (single isomer, unassigned) [Example 30], the minimal effective concentration came out at 1 nM. As for `N#Cc1ccc2oc(-c3ccc(COc4ccccc4CCN(CCCCC(=O)O)C4CCCc5nc(C(=O)O)ccc54)cc3)nc2c1` (single isomer, unassigned) [Example 31], the figure is 10 nM; as for `O=C(O)CCCCN(CCc1ccccc1OCc1ccc(-c2nc3cc(Cl)ccc3o2)cc1)C1CCCc2nc(C(=O)O)ccc21` (single isomer, unassigned) [Example 32], 0.3 nM; as for `O=C(O)c1ccc(CCN(CCc2cc(F)ccc2OCc2ccc(-c3ccc(C(F)(F)F)cc3)cc2Cl)C2CCCc3nc(C(=O)O)ccc32)cc1` (single isomer, unassigned) [Example 33], 10 nM. The same measure for `O=C(O)c1ccc(CCN(CCc2cc(F)ccc2OCc2ccc(-c3ccc(C(F)(F)F)cc3)cc2Cl)C2CCCc3nc(C(=O)O)ccc32)cc1` (single isomer, unassigned) [Example 34]: 1 nM. For the compound `O=C(O)c1ccc(CCN(CCc2cc(F)ccc2OCc2ccc(-c3nc4cc(Cl)ccc4o3)cc2)C2CCCc3nc(C(=O)O)ccc32)cc1` (single isomer, unassigned) [Example 35], the minimal effective concentration stood at 3 nM. Regarding `O=C(O)CCCCN(CCc1cc(F)ccc1OCc1ccc(-c2nc3cc(Cl)ccc3o2)cc1)C1CCCc2nc(C(=O)O)ccc21` (single isomer, unassigned) [Example 36], the minimal effective concentration turned out to be 30 nM. The same measure for `O=C(O)CCCCN(CCc1cc(F)ccc1OCc1ccc(-c2nc3cc(Cl)ccc3o2)cc1)C1CCCc2nc(C(=O)O)ccc21` (single isomer, unassigned) [Example 37]: 1 nM; for `O=C(O)c1ccc(CCN(CCc2cc(F)ccc2OCc2ccc(CCc3ccc(F)cc3)cc2)C2CCCc3nc(C(=O)O)ccc32)cc1` (single isomer, unassigned) [Example 42]: 3 nM. As for `O=C(O)c1ccc(CCN(CCc2ccccc2OCc2ccc(-c3nc4cc(Cl)ccc4o3)cc2)C2CCCc3nc(C(=O)O)ccc32)cc1` (single isomer, unassigned; enantiomer 1) [Example 19, 5-{[2-(4-Carboxyphenyl)ethyl][2-(2-{[4-(5-chloro-1,3-benzoxazol-2-yl)benzyl]oxy}phenyl)ethyl]-amino}-5,6,7,8-tetrahydroquinoline-2-carboxylic acid (Enantiomer 1)], the figure is 30 nM; as for `O=C(O)c1ccc(CCN(CCc2ccccc2OCc2ccc(-c3nc4cc(Cl)ccc4o3)cc2)C2CCCc3nc(C(=O)O)ccc32)cc1` (single isomer, unassigned; enantiomer 2) [Example 20, 5-{[2-(4-Carboxyphenyl)ethyl][2-(2-{[4-(5-chloro-1,3-benzoxazol-2-yl)benzyl]oxy}phenyl)ethyl]-amino}-5,6,7,8-tetrahydroquinoline-2-carboxylic acid (Enantiomer 2)], 3 nM. The same measure for `O=C(O)c1ccc(CCN(CCc2ccccc2OCc2ccc(CCc3ccccc3)cc2)C2CCCc3nc(C(=O)O)ccc32)cc1` (single isomer, unassigned; enantiomer 2) [Example 38, 5-{[2-(4-Carboxyphenyl)ethyl][2-(2-{[4-(2-phenylethyl)benzyl]oxy}phenyl)ethyl]amino}-5,6,7,8-tetrahydroquinoline-2-carboxylic acid (Enantiomer 2)]: 0.3 nM.

On to `O=C(O)c1ccc(CCN(CCc2cc(F)ccc2OCc2ccc(CCc3ccc(F)cc3)cc2)C2CCCc3nc(C(=O)O)ccc32)cc1` (single isomer, unassigned; enantiomer 2) [Example 43, 5-([2-(4-Carboxyphenyl)ethyl]{2-[5-fluoro-2-({4-[2-(4-fluorophenyl)ethyl]benzyl}oxy)phenyl]-ethyl}amino)-5,6,7,8-tetrahydroquinoline-2-carboxylic acid (Enantiomer 2)], for which the minimal effective concentration is on record as 0.3 nM. The same measure for `CCC(=O)N1CCC(c2ccc(COc3ccccc3CCN(CCCCC(=O)O)C3CCCc4nc(C(=O)O)ccc43)cc2)CC1` (stereo not shown) [Example 5]: 100 nM; for `O=C(O)CCCCN(CCc1ccccc1OCc1ccc([C@H]2CC[C@H](C(F)(F)F)CC2)cc1)C1CCCc2nc(C(=O)O)ccc21` (stereo partly shown) [Example 11]: 0.3 nM.
